According to patent US20090054312A1, “SMIPs: Small molecule inhibitors of p27 depletion in cancers and other proliferative diseases” (priority 2007, published 2009):
Counter-ions that a name gives are not always drawn.

Tested on: p27 levels in LNCaP-S14 cells
Test: p27 immunofluorescence screening assay in LNCaP-S14 cells; also: test concentration or dose not given here
Conditions: cell line not given; for % positive: p27-positive cells; for Z score: Table 1, standard deviations from plate mean
[1] = Table 1, compounds showing SMIP activity in the secondary screen

For `O=C(CSC1=NNC(c2ccccn2)S1)c1cccc(F)c1` (centres unmarked) [1-(3-fluorophenyl)-2-[(5-pyridin-2-yl-4,5-dihydro-1,3,4-thiadiazol-2-yl)sulfanyl]ethanone], the “% positive” value [1] was 25.37% and the Z score was 15.1024.
In the case of `O=c1c(C(F)(F)F)cccn1CCc1nc(-c2ccccc2)cs1` [1-[2-(4-phenyl-1,3-thiazol-2-yl)ethyl]-3-(trifluoromethyl)pyridin-2(1H)-one], the “% positive” value [1] is reported as 10.24% and the Z score is reported as 4.1344.
`Cc1cccn2c(=O)c3c(nc12)CCN(C(=O)c1ccc(C(C)(C)C)cc1)C3` [2-(4-tert-butylbenzoyl)-6-methyl-1,2,3,4-tetrahydro-11H-dipyrido-[1,2-a:4′,3′-d]pyrimidin-11-one] was tested, and the “% positive” value [1] was 19.38% and the Z score was 10.7588.
For `CS(=O)(=O)c1ccc(/C=C/C(=O)Nc2cccc(C(F)(F)F)c2)cc1` [3-[4-(methylsulfonyl)phenyl]-N-[3-trifluoromethyl]phenyl]-(2E)-propenamide], the “% positive” value [1] was 41.56% and the Z score was 26.8318.
With `O=C1C(Cl)=C(N2CCC(C(=O)N3CCOCC3)CC2)C(=O)c2ccccc21` [3-chloro-2-[4-(morpholine-4-carbonyl)-1-piperidyl]naphthalene-1,4-dione] the “% positive” value [1] was 12.42% and the Z score was 5.7130.
`COc1cc(OC)c(CN2CC[C@H](NC(=O)c3ccc(-n4nc(C(C)(C)C)cc4C(C)(C)C)cc3)C2)c(OC)c1` [4-(3,5-di-tert-butyl-1H-pyrazol-1-yl)-N-[(3S)-1-(2,4,6-trimethoxybenzyl)pyrrolidin-3-yl]benzamide] was tested, and the “% positive” value [1] was 14.27% and the Z score was 7.0595.
With `CC1CN(C(=O)c2cc(-c3ccc(Cl)cc3)cs2)CC(C)O1` (centres unmarked) [4-[[(4-(4-chlorophenyl)thiophen-2-yl]carbonyl]-2,6-dimethylmorpholine] the “% positive” value [1] was 23.93% and the Z score was 14.0559.
With `Nc1ncn([C@@H]2O[C@H](CO)[C@@H](O)[C@H]2O)c(=O)n1` [5-Azacytidine, reference compound] the “% positive” value [1] was 10.87% and the Z score was 4.5963.
For `CCCCCCSc1nnc(N)s1` [5-hexylsulfanyl-1,3,4-thiadiazol-2-amine], the “% positive” value [1] was 38.52% and the Z score was 24.6282.
For `Cc1[nH]cnc1-c1ccc(C(F)(F)F)cc1` [5-methyl-4-(4-(trifluoromethyl)phenyl)-(1H)-imidazole], the “% positive” value [1] was 7.89% and the Z score was 2.4371.
`CCOC(=O)c1cc2cccc(NC(=O)c3ccccc3OC(C)=O)c2[nH]1` [7-[(2-acetoxybenzoyl)amino]-1H-indole-2-carboxylic acid, ethyl ester] was tested, and the “% positive” value [1] was 51.60% and the Z score was 34.1083.
`COc1ccc2[nH]cc(CCNC(=O)OC[C@@H]3C[C@H]4CC[C@@H]3C4)c2c1` [(1R,2R,4S)-bicyclo[2.2.1]hept-2-ylmethyl[2-(5-methoxy-1H-indol-3-yl)ethyl]carbamate] was tested, and the “% positive” value [1] was 19.39% and the Z score was 10.7664.
For `O=C(OCn1ncc(Cl)c(Cl)c1=O)c1ccc(C(F)(F)F)cc1` [(4,5-dichloro-6-oxo-pyridazin-1-yl)methyl-4-(trifluoromethyl)benzoate], the “% positive” value [1] was 33.92% and the Z score was 21.2964.
In the case of `O=C(OCn1ncc(Cl)c(Cl)c1=O)c1cccc(C(F)(F)F)c1` [(4,5-dichloro-6-oxopyridazin-1(6H)-yl)methyl-3-(trifluoromethyl)benzoate], the “% positive” value [1] is reported as 8.67% and the Z score is reported as 3.0023.
`CC[C@@]1(O)C[C@H](O[C@H]2C[C@H](N(C)C)[C@H](O[C@H]3C[C@H](O)[C@H](O[C@H]4CCC(=O)[C@H](C)O4)[C@H](C)O3)[C@H](C)O2)c2c(cc3c(c2O)C(=O)c2c(O)cccc2C3=O)[C@H]1C(=O)OC` [Aclarubicin, reference compound] was tested, and the Z score was 4.5990 and the “% positive” value ([…]) was 10.89%.
For `CCCCC(CC)CNC(=N)NC(=N)NCCCCCCNC(=N)NC(=N)NCC(CC)CCCC` (centres unmarked) [Alexidine hydrochloride, reference compound], the “% positive” value [1] was 17.48% and the Z score was 9.38.
In the case of `COc1ccc(CCN2CCC(Nc3nc4ccccc4n3Cc3ccc(F)cc3)CC2)cc1` [Astemizole, reference compound], the “% positive” value [1] is reported as 7.37% and the Z score is reported as 2.0598.
In the case of `CC(C)COCC(CN(Cc1ccccc1)c1ccccc1)N1CCCC1` (centres unmarked) [Bepridil hydrochloride, reference compound], the “% positive” value [1] is reported as 8.54% and the Z score is reported as 2.9020.
With `CC[C@@]1(O)C(=O)OCc2c1cc1n(c2=O)Cc2cc3ccccc3nc2-1` [Camptothecin, reference compound] the “% positive” value [1] was 37.17% and the Z score was 23.6514.
For `[H]/N=C(\N/C(=N/[H])NCCCCCCNC(=N)NC(=N)Nc1ccc(Cl)cc1)Nc1ccc(Cl)cc1` [Chlorhexidine hydrochloride, reference compound], the “% positive” value [1] was 25.83% and the Z score was 15.4338.
For `CN(C)CC/C=C1/c2ccccc2Sc2ccc(Cl)cc21` [Chlorprothixene hydrochloride, reference compound], the “% positive” value [1] was 7.49% and the Z score was 2.1477.
`Cc1cc(C2CCCCC2)n(O)c(=O)c1` [Ciclopirox olamine, reference compound] was tested, and the “% positive” value [1] was 28.54% and the Z score was 17.3996.
With `Cc1cc(N)c2ccccc2[n+]1CCCCCCCCCC[n+]1c(C)cc(N)c2ccccc21` [Dequalinium chloride, reference compound] the “% positive” value [1] was 30.24% and the Z score was 18.6318.
With `Oc1ccc(Cl)cc1Cc1cc(Cl)ccc1O` [Dichlorophene, reference compound] the “% positive” value [1] was 12.27% and the Z score was 5.6065.
`C=C(CC)C(=O)c1ccc(OCC(=O)O)c(Cl)c1Cl` [Ethacrynic acid, reference compound] was tested, and the “% positive” value [1] was 18.71% and the Z score was 10.2724.
With `COc1cc([C@@H]2c3cc4c(cc3[C@@H](O[C@@H]3O[C@@H]5CO[C@@H](C)O[C@H]5[C@H](O)[C@H]3O)[C@H]3COC(=O)[C@H]23)OCO4)cc(OC)c1O` [Etoposide, reference compound] the “% positive” value [1] was 39.92% and the Z score was 25.6406.
`COC(=O)Nc1nc2ccc(Sc3ccccc3)cc2[nH]1` [Fenbendazole, reference compound] was tested, and the “% positive” value [1] was 4.46% and the Z score was −0.0511.
In the case of `Cc1cc2c(C(C)C)c(O)c(O)c(C=O)c2c(O)c1-c1c(C)cc2c(C(C)C)c(O)c(O)c(C=O)c2c1O` [Gossypol, reference compound], the Z score is reported as 3.1932 and the “% positive” value ([…]) is reported as 8.94%.
In the case of `CC[C@@H](C(=O)[C@@H](C)[C@@H](O)[C@H](C)CCc1ccc(C)c(O)c1C(=O)O)[C@H]1O[C@](CC)([C@H]2CC[C@](O)(CC)[C@H](C)O2)C[C@@H]1C` [Lasalocid sodium, reference compound], the “% positive” value [1] is reported as 45.21% and the Z score is reported as 29.4743.
With `O=c1cc(-c2ccc(O)c(O)c2)oc2cc(O)cc(O)c12` [Luteolin, reference compound] the “% positive” value [1] was 19.15% and the Z score was 10.5904.
With `OC(c1cc(C(F)(F)F)nc2c(C(F)(F)F)cccc12)C1CCCCN1` (centres unmarked) [Mefloquine, reference compound] the “% positive” value [1] was 17.66% and the Z score was 9.5116.
With `CC1=CC(=O)c2ccccc2C1=O` [Menadione, reference compound] the “% positive” value [1] was 38.33% and the Z score was 24.4943.
For `CSc1ccc2c(c1)C(N1CCN(C)CC1)Cc1ccccc1S2.O=C(O)/C=C\C(=O)O` (centres unmarked) [Methiothepin maleate, reference compound], the “% positive” value [1] was 9.08% and the Z score was 3.2976.
With `CN(C)c1ccc(O)c2c1C[C@H]1C[C@H]3[C@H](N(C)C)C(O)=C(C(N)=O)C(=O)[C@@]3(O)C(O)=C1C2=O` [Minocycline hydrochloride, reference compound] the “% positive” value [1] was 46.17% and the Z score was 30.1696.
In the case of `CO[C@@]12[C@H](COC(N)=O)C3=C(C(=O)C(C)=C(N)C3=O)N1C[C@@H]1N[C@@H]12` [Mitomycin C, reference compound], the “% positive” value [1] is reported as 42.52% and the Z score is reported as 27.5299.
With `CCC1(C2OC(C3OC(O)(CO)C(C)CC3C)CC2C)CCC(C2(C)CCC3(CC(O)C(C)C(C(C)C(OC)C(C)C(=O)[O-])O3)O2)O1.[Na+]` (centres unmarked) [Monensin, sodium salt, sodium 4-[2-[5-ethyl-5-[5-[6-hydroxy-6-(hydroxymethyl)-3,5-dimethyl-oxan-2-yl]-3-methyl-oxolan-2-yl]oxolan-2-yl]-9-hydroxy-2,8-dimethyl-1,6-dioxaspiro[4.5]decan-7-yl)-3-methoxy-2-methyl-pentanoate, reference compound] the Z score was 33.5974 and the “% positive” value ([…]) was 50.90%.
`CCN(CC)c1cc(-c2ccc(F)cc2)nc(-c2ccncc2)n1` [N,N-diethyl-6-(4-fluorophenyl)-2-pyridin-4-yl-pyrimidin-4-amine] was tested, and the “% positive” value [1] was 4.69% and the Z score was 0.1118.
`CC(C)(C)c1cc2cc(NS(=O)(=O)c3ccc(Cl)cc3)ccc2[nH]1` [N-(2-tert-butyl-(1H)-indol-5-yl)-4-chlorobenzenesulfonamide] was tested, and the “% positive” value [1] was 37.42% and the Z score was 23.8290.
In the case of `COc1ccc(S(=O)(=O)Nc2ccc3[nH]c(C(C)(C)C)cc3c2)cc1` [N-(2-tert-butyl-(1H)-indol-5-yl)-4-methoxybenzenesulfonamide], the “% positive” value [1] is reported as 29.15% and the Z score is reported as 17.8415.
In the case of `CCC(=O)N(Cc1cccc(Cl)c1)c1ccc2[nH]c(C(C)(C)C)cc2c1` [N-(2-tert-butyl-(1H)-indol-5-yl)-N-(3-chlorobenzyl)propanamide], the “% positive” value [1] is reported as 33.19% and the Z score is reported as 20.7674.
For `Cc1cc(Br)ccc1NC(=O)CCCc1c[nH]c2ccccc12` [N-(4-bromo-2-methyl-phenyl)-4-(1H-indol-3-yl)butanamide], the “% positive” value [1] was 30.52% and the Z score was 18.8304.
For `COc1ccc(S(=O)(=O)Nc2cccc3cc(C(=O)NCc4ccc(Cl)cc4)[nH]c23)cc1` [N-(4-chlorobenzyl)-7-[((4-methoxyphenyl)sulfonyl)amino]-(1H)-indole-2-carboxamide], the “% positive” value [1] was 11.30% and the Z score was 4.9019.
`COc1ccc(S(=O)(=O)N(Cc2ccc(Cl)cc2)Cc2ccc3cc[nH]c3c2)cc1` [N-(4-chlorobenzyl)-N-[((1H)-indol-6-yl)methyl]-4-methoxybenzenesulfonamide] was tested, and the “% positive” value [1] was 9.23% and the Z score was 3.4074.
